Experimental data published in patent US20100249083A1, “16,17-CARBOCYCLIC CONDENSED STEROID COMPOUNDS HAVING SELECTIVE ESTROGENIC ACTIVITY” (N.V. Organon, priority 2000, published 2010).

What was measured:
[1] = tested on: ovariectomised (OVX) rats; assay: Test for prevention of ovariectomy-induced bone loss in rats (anti-osteoporosis test); assay type: in vivo, rat; conditions: oral, 4 weeks, trabecular bone mineral density difference 40-60%
Excerpt: Ovariectomy of rats induces bone loss, which is due to estrogen deficiency. Administration of estrogenic compounds prevents this effect. The test is used to evaluate a compound for anti-osteoporotic activity in ovariectomised (OVX) rats. The effect on bone mass can be evaluated by peripheral Quantitative Computed Tomography (pQCT), or by quantitative analysis of X-ray pictures. Plasma osteocalcin and urinary deoxypyridinoline, calcium and phosphate gives information on bone metabolism. Increase of uterine weight and decrease of body and thymus weight reflect estrogenic effect.
Mature virgin 225-250 g female Wistar rats. Strain: Hsd/Cpd:Wu, SPF-bred by Harlan, CPB, Zeist, The Netherlands.
On day 1 of the experiment the rats are weighed and distributed over the cages in order of bodyweight, whereby the rat with the smallest bodyweight is placed in the first cage and the heaviest rat in the final cage. Treatments are randomised over the rats.
Sham-operation and ovariectomy are performed under ether anaesthesia. After recovery from the anaesthesia, within 24 h, vehicle, reference compound or test compound is administered once or twice daily for 4 weeks. […] Trabecular bone mineral density of the metaphyseal part of the femur (FBMDDIS mg/cm^3) is measured with a pQCT (peripheral Quantitative Computed Tomography machine; XCT 960A, Stratec, Birkenfeld, Germany). […]

[2] = Allen Doisy test for estrogenic activity in vivo
Protocol: In vivo estrogenic activity was determined by means of the Allen Doisy test, described in F. Allen, L. A. Doisy, J. Amer. Med. Assoc., 81, 819-821 (1923)

[3] = target: T1, human estrogen receptor α (hERα) (Homo sapiens, UniProt P03372); conditions: compared with (17β)-estradiol; first value of Erα/Erβ pair
T1 sequence (P03372 1-595): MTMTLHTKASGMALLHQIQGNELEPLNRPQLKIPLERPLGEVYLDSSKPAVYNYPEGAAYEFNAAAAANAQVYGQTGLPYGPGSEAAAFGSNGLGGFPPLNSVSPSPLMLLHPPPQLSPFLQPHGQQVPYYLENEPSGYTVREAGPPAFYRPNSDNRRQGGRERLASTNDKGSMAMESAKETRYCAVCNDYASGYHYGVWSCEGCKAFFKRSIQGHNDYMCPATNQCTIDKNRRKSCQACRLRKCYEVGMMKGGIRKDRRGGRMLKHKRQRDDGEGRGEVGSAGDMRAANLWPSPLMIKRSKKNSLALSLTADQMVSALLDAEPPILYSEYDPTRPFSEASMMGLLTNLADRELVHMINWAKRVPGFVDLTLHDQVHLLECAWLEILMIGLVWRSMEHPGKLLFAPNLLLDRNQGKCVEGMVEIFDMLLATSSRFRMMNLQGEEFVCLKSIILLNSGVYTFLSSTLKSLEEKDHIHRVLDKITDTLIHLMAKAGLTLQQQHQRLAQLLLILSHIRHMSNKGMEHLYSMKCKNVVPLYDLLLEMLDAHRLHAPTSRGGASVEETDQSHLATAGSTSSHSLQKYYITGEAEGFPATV
Protocol: (§2) Compounds are tested for their estrogen receptor activity in a binding assay and in a transactivation assay using the human estrogen receptor α or β.
(§3) Competitive binding to cytoplasmic human estrogen receptor α or β from recombinant Chinese hamster ovary (CHO) cells is used to estimate the relative binding affinity (═RBA) potency ratio) of a test compound as compared with (17β)-estradiol (E2) for estrogen receptors α or β present in the cytosol of recombinant CHO cells, stably transfected with the human estrogen receptor α (hERα) or β receptor (hERβ).

[4] = target: T2, human estrogen receptor β (hERβ) (Homo sapiens, UniProt Q92731); conditions: compared with (17β)-estradiol; second value of Erα/Erβ pair
Protocol: as §2, §3

[5] = target: T1, human estrogen receptor α (hERα); assay: Estrogenic agonistic transactivation assay, CHO cells with rat oxytocin promoter and luciferase reporter; assay type: cell-based; parameters: expressed in transfected cells; host or cells: CHO cells with rat oxytocin promoter and luciferase reporter; conditions: compared with estradiol; first value of Erα/Erβ pair
Excerpt: (§1) The estrogenic agonistic transactivation (potency ratio) of a test compound to stimulate the transactivation of the enzyme luciferase mediated via the estrogen receptors hERα or hERβ is compared with the standard estrogen estradiol. The antiestrogenic activity (potency ratio) of a test compound to inhibit the transactivation of the enzyme luciferase mediated via the estrogen receptors hERα or hERβ by the (17β)-estradiol is compared with the standard ICI 164.384 (=(7α,17β)-N-butyl-3,17-dihydroxy-N-methylestra-1,3,5(10)-triene-7-undecanamide).

[6] = target: T2, human estrogen receptor β (hERβ); assay: as above; assay type: cell-based; parameters: expressed in transfected cells; host or cells: CHO cells with rat oxytocin promoter and luciferase reporter; conditions: compared with estradiol; second value of Erα/Erβ pair
Excerpt: as §1

T2 sequence (Q92731 whole entry): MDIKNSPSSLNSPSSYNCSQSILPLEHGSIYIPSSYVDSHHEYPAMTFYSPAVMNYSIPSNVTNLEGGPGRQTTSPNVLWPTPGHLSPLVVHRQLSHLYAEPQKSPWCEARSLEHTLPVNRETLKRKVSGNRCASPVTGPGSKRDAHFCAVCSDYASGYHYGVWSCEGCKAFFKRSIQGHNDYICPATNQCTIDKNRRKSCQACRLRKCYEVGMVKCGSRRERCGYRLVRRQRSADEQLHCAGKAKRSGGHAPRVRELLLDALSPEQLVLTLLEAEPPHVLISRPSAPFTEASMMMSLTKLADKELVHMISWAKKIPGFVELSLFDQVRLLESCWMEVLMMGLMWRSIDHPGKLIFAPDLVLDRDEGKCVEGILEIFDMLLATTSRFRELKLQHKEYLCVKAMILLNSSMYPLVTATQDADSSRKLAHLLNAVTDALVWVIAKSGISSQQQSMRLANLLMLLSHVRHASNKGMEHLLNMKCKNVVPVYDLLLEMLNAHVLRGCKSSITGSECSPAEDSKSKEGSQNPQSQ

SMILES	Osteoporosis test, minimal active dose (MAD) [1] [mg/kg]	Allen Doisy test, active dose ([2]; oral) [mg/kg]	Allen Doisy test, active dose ([2]; sc) [mg/kg]	Binding-assay Erα (relative binding affinity, potency ratio) [3]	Binding-assay Erβ (relative binding affinity, potency ratio) [4]	Transactivation Erα (agonist potency ratio) [5]	Transactivation Erβ (agonist potency ratio) [6]
CCCC1Cc2cc(O)ccc2C2CCC3(C)C(CC4CCCCC43O)C12 (stereo not drawn) [(7α,16β,17α)-7-propyl-16,24-cyclo-19,21-dinorchola-1,3,5(10)-triene-3,17-diol]	0.19	0.125	0.024	15	7	0.3	< 0.1
CCC[C@@H]1Cc2cc(O)ccc2C2CC[C@@]3(C)C(C[C@H]4CC[C@H](O)C[C@]43O)C21 (stereo partly drawn) [E, (7α,16β,17 α,22S)-7-propyl-16,24-cyclo-19,21-dinorchola-1,3,5(10)-triene-3,17,22-triol]	0.03	0.03	0.005	–	–	–	–
